Patent US20040101834A1, “Method of and kit for assessing responsiveness of cancer patients to antifolate chemotherapy” (priority 2001, published 2004)
Where two headings read alike, the source gives them in different places. Marks after values point to notes of the source that are not given here.

Columns and labels:
[1] = biological target: T1, RFC in GW70 cells (Homo sapiens, UniProt P41440, E45K/H27R/S46I/V29L); test: [3H]MTX and [3H]folic acid transport; assay type: cell-based; conditions: GW70 vs parental CEM
T1 construct: endogenous in cells; host or cells: CEM-GW70 (GW1843U89-resistant CCRF-CEM subline)
T1 sequence (P41440 1-591 H27R/V29L/E45K/S46I): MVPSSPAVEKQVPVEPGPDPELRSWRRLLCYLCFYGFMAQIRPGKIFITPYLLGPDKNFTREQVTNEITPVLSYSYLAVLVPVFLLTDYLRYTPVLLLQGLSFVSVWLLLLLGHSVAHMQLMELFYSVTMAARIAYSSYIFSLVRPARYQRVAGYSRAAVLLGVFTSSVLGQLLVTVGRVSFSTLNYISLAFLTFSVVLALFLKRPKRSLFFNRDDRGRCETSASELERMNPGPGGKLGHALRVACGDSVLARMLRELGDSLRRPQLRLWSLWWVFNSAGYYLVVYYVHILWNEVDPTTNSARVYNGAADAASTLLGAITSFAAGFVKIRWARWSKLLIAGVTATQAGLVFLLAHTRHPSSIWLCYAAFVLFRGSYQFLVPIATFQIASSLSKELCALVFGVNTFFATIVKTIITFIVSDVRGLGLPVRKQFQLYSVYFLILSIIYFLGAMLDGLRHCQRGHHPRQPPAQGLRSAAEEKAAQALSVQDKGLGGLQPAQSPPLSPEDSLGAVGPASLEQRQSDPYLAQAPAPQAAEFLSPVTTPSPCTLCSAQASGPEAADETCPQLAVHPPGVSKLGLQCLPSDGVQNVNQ
Description: At selected transport time intervals, ranging from 0.5-30 minutes, uptake was terminated by the addition of 10 ml ice-cold HBSS, after which centrifugation and cell wash with another 10 ml ice-cold HBSS were performed. The final cell pellet was then counted for radioactivity.

[2] = tested on: GW70/LF cells; test: Antifolate growth inhibition, 72 h drug exposure; assay type: cell-based
Description: The GW70 subline was established by stepwise exposure of parental CEM cells to gradually increasing concentrations of the potent thymidylate synthase inhibitor, GW1843U89 in normal growth medium; this selection was initiated at 1.5 nM and terminated at 70 nM GW1843U89, the cells were therefore termed GW70. GW70/LF cells were established by gradual deprivation of folic acid from the growth medium; this was terminated at a concentration of 5 nM folic acid.

[3] = tested on: parental human CEM leukemia cells (CEM/WT); test: Antifolate growth inhibition, 72 h drug exposure; assay type: cell-based
[4] = tested on: GW70 cells (GW1843U89-resistant CEM subline); test: Antifolate growth inhibition, 72 h drug exposure; assay type: cell-based, human
[5] = biological target: T2, human RFC (Homo sapiens, UniProt P41440); conditions: Westerhof et al., 1995; read-out: Ki as transport substrate; cited from earlier work
T2 sequence (P41440 1-591): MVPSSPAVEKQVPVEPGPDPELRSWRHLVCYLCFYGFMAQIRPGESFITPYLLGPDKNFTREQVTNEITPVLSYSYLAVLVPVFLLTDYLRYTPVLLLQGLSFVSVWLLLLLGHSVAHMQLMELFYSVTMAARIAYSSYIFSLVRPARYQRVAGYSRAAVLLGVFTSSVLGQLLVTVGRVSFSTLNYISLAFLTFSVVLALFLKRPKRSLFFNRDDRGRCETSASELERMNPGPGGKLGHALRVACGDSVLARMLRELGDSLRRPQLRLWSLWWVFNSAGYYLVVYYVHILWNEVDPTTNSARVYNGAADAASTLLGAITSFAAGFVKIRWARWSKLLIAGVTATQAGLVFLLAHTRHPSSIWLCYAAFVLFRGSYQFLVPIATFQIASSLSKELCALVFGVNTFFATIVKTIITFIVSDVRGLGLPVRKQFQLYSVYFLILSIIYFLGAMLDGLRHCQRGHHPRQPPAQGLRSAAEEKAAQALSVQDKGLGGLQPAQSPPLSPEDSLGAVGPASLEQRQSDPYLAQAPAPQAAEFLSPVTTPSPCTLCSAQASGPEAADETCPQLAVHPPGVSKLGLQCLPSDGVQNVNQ

[6] = tested on: mouse MTX^rA leukemia transfectant harboring His27 RFC cDNA; test: Folate growth requirement in RFC transfectants; assay type: cell-based
Description: (§2) Thereafter, cells were washed twice with serum-free folic acid-free medium, in order to eliminate GAT. […] Thereafter, cells were exposed continuously to various concentrations of leucovorin or folic acid for 72 hours, following which cell numbers were determined by hemocytometer count of viable cells, using trypan blue exclusion.

[7] = tested on: GW70 cells (GW1843U89-resistant CEM subline); test: Folate growth requirement; assay type: cell-based, human; conditions: Homo sapiens, read-out: EC50, concentration necessary to support 50% of maximal growth; Table 6; column GW (GW70)
From the text: (§1) Table 6 below summarizes the antifolate growth inhibition and folate growth requirement in parental human CEM leukemia cells and their GW70 subline.

[8] = tested on: mouse MTX^rA leukemia transfectant harboring native RFC (Arg27) cDNA; test: Folate growth requirement in RFC transfectants; assay type: cell-based
Description: as §2

[9] = tested on: mouse MTX^rA leukemia transfectant harboring Glu45Lys RFC cDNA; test: Folate growth requirement in RFC transfectants; assay type: cell-based
Description: as §2

[10] = tested on: parental human CEM leukemia cells (CEM/WT); test: Folate growth requirement; assay type: cell-based; conditions: read-out: EC50, concentration necessary to support 50% of maximal growth, Table 6
From the text: as §1

[11] = tested on: mouse MTX^rA leukemia transfectant harboring His27/His56 RFC cDNA; test: Folate growth requirement in RFC transfectants; assay type: cell-based
Description: as §2

[12] = tested on: mouse MTX^rA leukemia transfectant harboring Arg27/His56 RFC cDNA; test: Folate growth requirement in RFC transfectants; assay type: cell-based
Description: as §2

[13] = Homo sapiens, 72 h, Table 10, GW70/LF
[14] = Homo sapiens, 72 h, Table 10, GW70/LF grown in the presence of 2.3 µM folic acid
[15] = Homo sapiens, 72 h, read-out: IC50, antifolate concentration that inhibits cell growth by 50%
[16] = Homo sapiens, Table 10, CEM/WT, 72 h drug exposure, read-out: IC50
[17] = Mus musculus, read-out: EC50, concentration necessary to support 50% of maximal growth of control cells

## CN1c2c(nc(N)[nH]c2=O)NCC1CNc1ccc(C(=O)N[C@@H](CCC(=O)O)C(=O)O)cc1 (some centres unmarked) [5-methyl-THF, 5-methyltetrahydrofolate]
[1]
  fold increased affinity of RFC: 3 fold

## Cc1ccc2nc(N)[nH]c(=O)c2c1Sc1ccncc1 [AG337]
[2]; Table 10, GW70/LF grown in the presence of 2.3 µM folic acid, read-out: IC50
  IC50: 2220 ± 264 nM
[2]; Table 10, GW70/LF, read-out: IC50
  IC50: 920 ± 430 nM
[3]; Table 10, CEM/WT, 72 h drug exposure, read-out: IC50
  IC50: 1800 ± 340 nM
[4]; GW70, lipid-soluble antifolates
  sensitivity relative to parental CEM cells: collaterally more sensitive than parental CEM cells
[4]; Table 10, GW70, 72 h drug exposure, read-out: IC50
  IC50: 974 ± 241 nM

## Nc1nc2c(c(=O)[nH]1)CC(CCc1ccc(C(=O)N[C@@H](CCC(=O)O)C(=O)O)cc1)CN2 (some centres unmarked) [DDATHF, 5,10-dideazatetrahydrofolic acid]
[2]; [13]
  IC50: 8.2 ± 1.7 nM
[2]; [14]
  IC50: > 10000 nM
[3]; Homo sapiens, 72 h
  IC50: 11 ± 4 nM
[4]; Homo sapiens, 72 h
  IC50: 360 ± 106 nM

## Cc1nc2ccc3ccc(CNc4ccc5c(c4)CN([C@@H](CCC(=O)O)C(=O)O)C5=O)cc3c2c(=O)[nH]1 [GW1843]
[1]
  fold decreased affinity of RFC: 6 fold
[2]; [13]
  IC50: 2.5 ± 0.7 nM
[2]; [14]
  IC50: 7.5 ± 1.5 nM
[3]; [15]
  IC50: 1.8 ± 0.22 nM
[3]; [16]
  IC50: 2.4 ± 0.4 nM
[5]
  Ki: 800 nM
[4]; GW70 vs parental CEM cells
  fold resistance / cross-resistance: 100 fold
[4]; Homo sapiens, 72 h
  IC50: 123 ± 48 nM
[4]; [15]
  IC50: 172 ± 34.5 nM

## Nc1nc2c(c(=O)[nH]1)N(C=O)C(CNc1ccc(C(=O)N[C@@H](CCC(=O)O)C(=O)O)cc1)CN2 (some centres unmarked) [Leucovorin, 5-formyltetrahydrofolate]
[6]; [17]
  EC50: 0.78 ± 0.09 nM
[6]; in parentheses
  MTX IC50/leucovorin EC50 ratio: (0.97)
[7]
  EC50: 2.4 ± 1.1 nM
[8]; Arg27 transfectant, in parentheses
  MTX IC50/leucovorin EC50 ratio: (1)^c
[8]; Mus musculus, read-out: EC50, concentration necessary to support 50% of maximal growth of control cells, Arg27 (native RFC) transfectant
  EC50: 0.76 ± 0.03 nM
[9]; Glu45Lys transfectant, in parentheses
  MTX IC50/leucovorin EC50 ratio: (1.17)
[9]; [17]
  EC50: 0.65 ± 0.15 nM
[10]
  EC50: 0.51 ± 0.08 nM
[11]; [17]
  EC50: 0.42 ± 0.1 nM
[11]; in parentheses
  MTX IC50/leucovorin EC50 ratio: (1.81)
[12]; [17]
  EC50: 0.7 ± 0.14 nM
[12]; in parentheses
  MTX IC50/leucovorin EC50 ratio: (1.32)

## Nc1nc2[nH]cc(CCc3ccc(C(=O)N[C@@H](CCC(=O)O)C(=O)O)cc3)c2c(=O)[nH]1 [MTA]
[2]; [13]
  IC50: 4.6 ± 0.6 nM
[2]; [14]
  IC50: 221 ± 47 nM
[3]; [16]
  IC50: 23 ± 7 nM
[4]; Homo sapiens, 72 h
  IC50: 351 ± 73 nM
